Assay results published in PubChem BioAssay (NCI).
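Each compound was tested at five concentrations against cells in 96-well plates for 48 hours. TGI: concentration producing complete growth inhibition.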

How the values were obtained:
Test in all cases: DTP human tumour cell line panel, 48 h
[1] = system: 786-0 renal
[2] = system: A498 renal
[3] = system: A549 NSCLC
[4] = system: ACHN renal
[5] = system: BT-549 breast
[6] = system: CAKI-1 renal
[7] = system: CCRF-CEM leukemia
[8] = system: COLO 205 colon
[9] = system: DU-145 prostate
[10] = system: EKVX NSCLC
[11] = system: HCC-2998 colon
[12] = system: HCT-116 colon
[13] = system: HCT-15 colon
[14] = system: HL-60(TB) leukemia
[15] = system: HOP-62 NSCLC
[16] = system: HOP-92 NSCLC
[17] = system: HS 578T breast
[18] = system: HT29 colon
[19] = system: IGROV1 ovarian
[20] = system: K-562 leukemia
[21] = system: KM12 colon
[22] = system: LOX IMVI melanoma
[23] = system: M14 melanoma
[24] = system: MALME-3M melanoma
[25] = system: MCF7 breast
[26] = system: MDA-MB-231 breast
[27] = system: MDA-MB-435
[28] = system: MDA-N
[29] = system: MOLT-4 leukemia
[30] = system: NCI-H23 lung
[31] = system: NCI-H460 lung
[32] = system: NCI-H522 lung
[33] = system: NCI/ADR-RES ovarian
[34] = system: OVCAR-3 ovarian
[35] = system: OVCAR-4 ovarian
[36] = system: OVCAR-5 ovarian
[37] = system: OVCAR-8 ovarian
[38] = system: PC-3 prostate
[39] = system: RPMI-8226 leukemia
[40] = system: RXF 393 renal
[41] = system: SF-268 CNS
[42] = system: SF-295 CNS
[43] = system: SK-MEL-2 melanoma
[44] = system: SK-MEL-28 melanoma
[45] = system: SK-MEL-5 melanoma
[46] = system: SK-OV-3 ovarian
[47] = system: SN12C renal
[48] = system: SNB-19 CNS
[49] = system: SNB-75 CNS
[50] = system: SW-620 colon
[51] = system: T-47D breast
[52] = system: TK-10 renal
[53] = system: U251 CNS
[54] = system: UACC-257 melanoma
[55] = system: UACC-62 melanoma
[56] = system: UO-31 renal

Measured: TGI

COc1cc(/C=C2\N=C(c3ccccc3)N(c3nc4c(OC)ccc(OC)c4s3)C2=O)cc(OC)c1OC
> 100 µM: all assays above
